US9943525B2, “Composition for reducing cell senescence comprising Rho-kinase inhibitor and use thereof” (Samsung Electronics Co., Ltd., priority 2014, dated 2018)
Entries after “also recorded” stand apart in the source; their conditions may differ.

System: wound tissue of old (19 months old) male C57BL/6J mice
Assay: immunohistochemistry and Masson's trichrome staining of wound tissue sections
Assay type: in vivo, mouse
Conditions: 10 μM in 30% Pluronic gel topical daily
Method: To further test whether ROCK inhibitor can promote cutaneous wound healing in old (19 months old) male mice (C57BL/6J mice), four full-thickness punch-biopsy wounds (8 mm in diameter)(four wound sites/mouse, five mice/group) were created on the dorsal skin of mouse, 0.5 mL 10 μM Y-27632 in 30% Pluronic gel (Pluronic F-127 Sigma, P2443-1KG) was applied to wounds every day, and then covered the wounds with Telfa sponges (Kendall Health Care, Mansfield, Mass., USA). DMSO was used as a control. All animal studies were reviewed and approved by the […] Animal Care and Use Committee of SKKU School of Medicine (SUSM). SUSM is an Association for Assessment and Accreditation of Laboratory Animal Care international accredited facility and abides by the Institute for Laboratory Animal Research guide. Wounds were photographed for 10 days. Immunohistochemistry analyses were performed on 5 μm paraffin embedded sections as described previously (Lin et. al., 2004. Developmental Biology 270, 474-486). Primary antibodies used for immunohistochemistry were mouse anti-α-smooth muscle actin (Sigma, F3777-2ML, 1:500), and mouse anti-PCNA (Santa Cruz Biotechnology, SC-56, 1:500). Secondary antibodies used for immunohistochemistry were EnVisionTM Detection System (DAKO, […]). Masson's trichrome staining was performed according to the manufacturer's instructions (Polysciences Inc., Warrington Pa., USA). An immunohistochemical analysis was carried out to investigate the mechanism underlying the wound-healing process. […] FIG. 24 represents an immunohistochemical experimental result showing that Y-27632 treatment plays an important role in wound healing in old mouse (19 months old). Wound tissue sections were also subjected to Masson's trichrome staining to assess collagen deposition in the cross-sectional area of remodeled tissue.

SMILES: C[C@@H](N)[C@H]1CC[C@H](C(=O)Nc2ccncc2)CC1 [Y-27632, (1R,4R)-4-((R)-1-aminoethyl)-N-(pyridin-4-yl)cyclohexanecarboxamide]
- Masson's trichrome staining (collagen deposition) (DMSO: diffuse in granulation tissue, FIG. 24): strong in the dermis area
- site of proliferation by PCNA immunolabeling (DMSO: selective proliferation in granulation tissue, FIG. 24): proliferation was observed in the supra basal area of epidermis
- α-SMA immunoreactivity in wound area (control: high in granulation tissue, FIG. 24): diffuse in the dermis and was correlated with the appearance of collagen fibers
- collagen thickness (relative to DMSO, P<0.01, FIG. 25): increased; also recorded: more dense and thicker collagen
- number of PCNA-positive cells in the epidermis (vs control group, P<0.01, FIG. 26): higher
